Experimental data taken from patent US9243247B2, “Composition for promoting apoptosis or inhibiting cell growth, comprising epstein-barr virus microrna” (Catholic University Industry Academic Cooperation Foundation, priority 2011, dated 2016).

Tests used:
Format in all cases: cell-based
AGS cell strain [1] = assay: Cell growth test (CCK-8 assay) after transfection of BART miRNA mimics; settings: mimic 10 nM, 72 hours after transfection, relative to scrambled control (=1), n=9
Protocol: An AGS cell strain (Korean Cell Line Bank), which is a stomach cancer cell strain, was cultured in an RPMI1640 (Gibco) culture medium including 10% fetal bovine serum. Mature type synthesized BART miRNAs were transfected to the AGS cell strain by using G-fectin (Genolution) according to a protocol of the manufacture.
To investigate the effect of individual EBV BART miRNAs on the AGS cell strain, the synthesized miRNAs were transfected to the AGS cell strain and, after 72 hours, cells were counted by CCK-8 assay.
Immediately after the AGS cell strain, which is an EBV-negative cell strain, was divided into 96-well plate having 1×10^3 cells/well, a synthesized miRNA (10 nM) was transfected by using G-fectin. After the transfection, according to the experimental objective, the cells were cultured at 37° C. in an incubator, and then CCK-8 was divided among the wells by allocating 10 μl of CCK-8 to each well and the resulting mixture was cultured in an incubator at 37° C. for two hours. Then, the light absorbance was measured with an ELISA measuring instrument.
By the method described in Example 3, miR-BART5-5p mimic or miR-BART15-3p mimic (10 nM) were transfected to the AGS cell strain, and the effect thereof on cell growth was investigated over time.
miR-BART5-5p, miR-BART15-3p, and miR-BART20-3p were transfected to the AGS cell strain (1×10^3 cells/well) in a concentration of 1, 3, 10, and 30 nM, and the effect on cell growth was investigated. Immediately after the AGS cell strain was divided into a 96-well plate such that 1×10^3 AGS cells were allocated to each well, a synthesized miRNA was transfected by using G-fectin. Seventy two hours after the transfection, CCK-8 was divided among the wells by allocating 10 μl of CCK-8 to each well, and the resulting mixture was cultured at 37° C. in an incubator for two hours.

AGS cell strain [2] = assay: Measurement of apoptosis (Annexin V staining, FACS); settings: for Relative Apoptotic cell: AGS, mimic 10 nM, 10 uM 5-FU 24 h after transfection, then 48 hours, Annexin V, relative to scrambled control (=1), n=9; for effect on cell growth and apoptosis (summary statement): mimics transfected to AGS, tumor cell strain not infected with EBV
Protocol: Immediately after the AGS cell strain, which is an EBV-negative cell strain, was divided was divided into a 6-well plate such that 2×10^5 AGS cells were allocated to each well, a synthesized miRNA (10 nM) was transfected by using G-fectin and the resulting mixture was cultured at 37 t in an incubatorTwenty four hours after the transfection, 10 uM of 5-FU was treated and the resulting mixture was cultured in an incubator at 37° C. for 48 hours. The cells were detached by using Trypsin-EDTA and washed with PBS two times. Afterwards, the cells were treated with a PE Annexin V Apoptosis Detection Kit and the changed ratio of apoptotic cell was investigated by FACS (FIG. 7).
Immediately after the AGS cell strain, which is an EBV-negative cell strain, is divided into a 6-well plate such that 2×10^5 AGS cells were allocated to each well, a synthesized miRNA (10 nM) was transfected by using G-fectin and the resulting mixture was cultured at 37° C. Twenty four hours after the transfection, 10 uM of 5-FU, which is an anti-cancer agent, was treated and the resulting mixture was cultured in an incubator at 37° C. for 48 hours. The cells were detached by using Trypsin-EDTA and washed with PBS two times. Afterwards, the cells were treated with a PE Annexin V Apoptosis Detection Kit and the ratio of cells where apoptosis took place was measured by FACS.

AGS cell strain [3] = assay: Effect on cell cycle (propidium iodide staining, FACS, sub G1); settings: mimic 10 nM, 10 uM 5-FU 24 h after transfection, then 48 hours, relative to scrambled control (=1)
Protocol: The AGS cells were divided into a 96-well plate such that 2×10^5 AGS cells were allocated to each well, and synthesized miRNAs (10 nM) were transfected and cultured at 37° C. in an incubator. Twenty four hours after the transfection, 10 uM of 5-FU, which is an anti-cancer agent, was treated in one case or not treated in another case, and then the resulting mixture was cultured in an incubator at 37° C. for 48 hours. The cells were detached by using Trypsin-EDTA and washed with PBS two times.
Immediately after the AGS cell strains, which are EBV-negative cell strains, were divided into a 6-well plate such that 2×10^5 AGS cells were allocated to each well, a synthesized miRNA (10 nM) was transfected by using G-fectin and cultured at 37° C. in an incubator. Twenty four hours after the transfection, 10 uM of 5-FU was treated and the resulting mixture was cultured at 37° C. in an incubator for 48 hours. The cells were detached by using Trypsin-EDTA and washed with PBS two times. Afterwards, DNA was stained by propidium iodide staining and the ratio of cells where cell cycle was changed was investigated by FACS.

Substance	Relative Cell Growth (AGS cell strain [1])	Relative Apoptotic cell (AGS cell strain [2])	Relative Sub G1 (AGS cell strain [3])	also measured
BART7-3p: EBV BART miRNA mimic, double stranded RNA; sense SEQ NO: 43, antisense SEQ NO: 44 (sense CAUCAUAGUCCAGUGUCCAGGG; antisense CCCUGGACACUGGACUAUGAUG; chemistry not given here)	1.156	1.107	0.9393	
BART7-5p: EBV BART miRNA mimic, double stranded RNA; sense SEQ NO: 41, antisense SEQ NO: 42 (sense CCUGGACCUUGACUAUGAAACA; antisense UGUUUCAUAGUCAAGGUCCAGG; chemistry not given here)	1.539	1.097	0.9918	Relative Apoptotic cell (AGS cell strain [2]; listed as 7-5p): significantly higher; effect on cell growth and apoptosis (summary statement) (AGS cell strain [2]): inhibit cell growth and promote apoptosis
BART8-3p: EBV BART miRNA mimic, double stranded RNA; sense SEQ NO: 47, antisense SEQ NO: 48 (sense GUCACAAUCUAUGGGGUCGUAGA; antisense UCUACGACCCCAUAGAUUGUGAC; chemistry not given here)	1.396	1.072	0.9616	
BART8-5p: EBV BART miRNA mimic, double stranded RNA; sense SEQ NO: 45, antisense SEQ NO: 46 (sense UACGGUUUCCUAGAUUGUACAG; antisense CUGUACAAUCUAGGAAACCGUA; chemistry not given here)	1.448	0.9757	1.013	
BART9-3p: EBV BART miRNA mimic, double stranded RNA; sense SEQ NO: 51, antisense SEQ NO: 52 (sense UAACACUUCAUGGGUCCCGUAGU; antisense ACUACGGGACCCAUGAAGUGUUA; chemistry not given here)	1.569	0.7948	0.8669	
BART9-5p: EBV BART miRNA mimic, double stranded RNA; sense SEQ NO: 49, antisense SEQ NO: 50 (sense UACUGGACCCUGAAUUGGAAAC; antisense GUUUCCAAUUCAGGGUCCAGUA; chemistry not given here)	1.482	1.25	1.005	Relative Apoptotic cell (AGS cell strain [2]; listed as 9-5p): significantly higher; effect on cell growth and apoptosis (summary statement) (AGS cell strain [2]): inhibit cell growth and promote apoptosis
BART10-3p: EBV BART miRNA mimic, double stranded RNA; sense SEQ NO: 59, antisense SEQ NO: 60 (sense UACAUAACCAUGGAGUUGGCUGU; antisense ACAGCCAACUCCAUGGUUAUGUA; chemistry not given here)	1.591	0.8971	0.8394	
BART10-5p: EBV BART miRNA mimic, double stranded RNA; sense SEQ NO: 57, antisense SEQ NO: 58 (sense GCCACCUCUUUGGUUCUGUACA; antisense UGUACAGAACCAAAGAGGUGGC; chemistry not given here)	1.646	0.8373	0.833	
BART11-3p: EBV BART miRNA mimic, double stranded RNA; probably sense SEQ NO: 63, antisense SEQ NO: 64 (printed as BART11-5p) (sense ACGCACACCAGGCUGACUGCC; antisense GGCAGUCAGCCUGGUGUGCGU; chemistry not given here)	0.9459	1.058	1.128	
BART11-5p: EBV BART miRNA mimic, double stranded RNA; sense SEQ NO: 61, antisense SEQ NO: 62 (sense UCAGACAGUUUGGUGCGCUAGUUG; antisense CAACUAGCGCACCAAACUGUCUGA; chemistry not given here)	1.08	1.006	1.081	
BART12-3p: EBV BART miRNA mimic, double stranded RNA; sense SEQ NO: 67, antisense SEQ NO: 68 (sense UCCUGUGGUGUUUGGUGUGGUU; antisense AACCACACCAAACACCACAGGA; chemistry not given here)	1.102	1.084	1.317	Relative Sub G1 (AGS cell strain [3]; listed as 12-3p): increased
BART12-5p: EBV BART miRNA mimic, double stranded RNA; sense SEQ NO: 65, antisense SEQ NO: 66 (sense ACCCGCCCAUCACCACCGGAC; antisense GUCCGGUGGUGAUGGGCGGGU; chemistry not given here)	1.159	0.9458	1.135	Relative Sub G1 (AGS cell strain [3]; listed as 12-5p): increased
BART13-3p: EBV BART miRNA mimic, double stranded RNA; sense SEQ NO: 79, antisense SEQ NO: 80 (sense UGUAACUUGCCAGGGACGGCUGA; antisense UCAGCCGUCCCUGGCAAGUUACA; chemistry not given here)	1.255	1.187	0.9813	Relative Apoptotic cell (AGS cell strain [2]; listed as 13-3p): significantly higher; effect on cell growth and apoptosis (summary statement) (AGS cell strain [2]): inhibit cell growth and promote apoptosis
BART13-5p: EBV BART miRNA mimic, double stranded RNA; sense SEQ NO: 77, antisense SEQ NO: 78 (sense AACCGGCUCGUGGCUCGUACAG; antisense CUGUACGAGCCACGAGCCGGUU; chemistry not given here)	1.326	1.077	1.178	Relative Apoptotic cell (AGS cell strain [2]; listed as 13-5p): significantly higher; effect on cell growth and apoptosis (summary statement) (AGS cell strain [2]): inhibit cell growth and promote apoptosis; Relative Sub G1 (AGS cell strain [3]; listed as 13-5p): increased
